Several values for one entry are separate records, joined by “and”; a condition that tells them apart may be missing. Identical values can stand only once. Like-named read-outs stand apart in the source and are kept apart here.
Tests used:
skin = settings: cited from earlier work
alkaline phosphatase [1] = target: T1, alkaline phosphatase (Bos taurus, UniProt P19111); type: biochemical; set-up: purchased Sigma Aldrich, St. Louis, MO P0114 (original source); P7640 (second source, 'new AP' condition only); settings: for A1-Results R1 / A1-Results R3 / OD405 readings (FIG. 11B) / A1-Results AVG: 1:100; for A1-Results R1 / A1-Results R3 / A1-Results AVG: 20 μL into 180 μL, 4 hours RT, PNPP 60 min, 405 nm; for A1-Results R1 / A1-Results R3: 0.5 mL microcentrifuge tubes; for OD405 readings (FIG. 11B): 4 mL glass vials, 30 μL into 300 μL, 4 hours room temperature, 3 mL PNPP 1 hour; for A1-Results AVG: average of R1-R3; for prediction based on OD405 values (FIG. 6B): original alkaline phosphatase 1:1; for prediction based on OD405 values (FIG. 6B) / OD405 readings (FIG. 6D): 18 hours room temperature; for OD405 readings (FIG. 6D): original alkaline phosphatase 1:100 (100 units), 100 μL into 1 mL, PNPP 1 hour
T1 sequence (P19111 20-506): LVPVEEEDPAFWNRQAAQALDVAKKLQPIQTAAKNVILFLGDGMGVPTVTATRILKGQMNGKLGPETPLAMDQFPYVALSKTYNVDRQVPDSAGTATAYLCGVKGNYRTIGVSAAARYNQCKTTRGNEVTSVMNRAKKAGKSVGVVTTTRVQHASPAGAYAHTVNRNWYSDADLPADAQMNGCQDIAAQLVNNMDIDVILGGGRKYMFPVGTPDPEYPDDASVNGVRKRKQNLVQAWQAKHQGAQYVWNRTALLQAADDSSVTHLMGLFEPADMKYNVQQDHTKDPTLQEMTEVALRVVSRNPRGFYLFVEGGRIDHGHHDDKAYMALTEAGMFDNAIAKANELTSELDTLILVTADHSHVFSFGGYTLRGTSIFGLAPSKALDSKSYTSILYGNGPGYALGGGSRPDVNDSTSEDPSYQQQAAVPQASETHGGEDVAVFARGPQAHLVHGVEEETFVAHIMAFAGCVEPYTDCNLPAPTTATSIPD

alkaline phosphatase [2] = target: T1, alkaline phosphatase; settings: for OD405 readings (FIG. 11D): 4 mL glass vials, 30 μL into 300 μL, 1:100, 4 hours room temperature, 3 mL PNPP 1 hour
Description: Two different dosing concentrations were evaluated, 10 μL of test chemical added to 90 μL of alkaline phosphatase reaction reagent and 50 μL of test chemical added to 50 μL of alkaline phosphatase reaction reagent; all aliquoted in 96-well plates.
• 1. Alkaline phosphatase reaction reagent (fresh, 1:100) • a. Take 4 mL of AP (1:10) stock solution, add to 36 mL PBS. Vortex mix and then invert to mix 10 times • 2. Prepare alkaline phosphatase reaction reagent for every condition • a. 200 μL AP (1:10) in 1.8 mL PBS • b. […] 200 μL AP (1:10) in 1.8 mL Acetone • 3. Prepare 96-well plates for dosing • 4. Prepare 96-well plates for PNPP reading (3 wells for each test chemical) • a. Aliquot with 200 μL PNPP
• 1. Set 1 • a. 10 μL chemical added to 90 μL AP reaction reagent • 2. Set 2 • a. 50 μL chemical added to 50 μL AP reaction reagent • 3. Incubate for 3 hours • a. To the prepared 96-well plate with 200 μL PNPP aliquoted, add 20 μL • b. […] To the prepared 96-well plate with 200 μL PNPP aliquoted, add 20 μL • b.
In our next study, we focused on ethanol and buffered saline (potassium chloride, potassium phosphate monobasic, sodium chloride, sodium phosphate dibasic) as our solvents.
• 1. Alkaline phosphatase reaction reagent • a. 1:100 • i. PBS: Take 400 μL of AP (1:10) stock solution, add to 3.6 mL PBS. Vortex mix and then invert to mix 10 times • ii. […] Vortex mix and then invert to mix 10 times • b. 1:1000 • i. PBS: Take 400 μL of AP (1:100) stock solution, add to 3.6 mL PBS. Vortex mix and then invert to mix 10 times • ii. […] Vortex mix and then invert to mix 10 times • 2. Prepare 0.5 mL microcentrifuge tubes for dosing • a. One set for room temperature, one set for 37° C. • 3. Prepare 96-well plates for PNPP reading (3 wells for each test chemical) • a. Aliquot with 200 μL PNPP
• 1. In each microcentrifuge tube for each condition, add 180 μL of the corresponding AP reaction reagent • 2. Add 20 μL of the test chemical to each microcentrifuge tube • 3. Incubate for 4 hours (one set at room temperature; one set at 37° C.) • 4. To prepared 96-well plates with 200 μL PNPP aliquoted, add 20 μL of each microcentrifuge tube to the corresponding well • 5.

alkaline phosphatase [3] = target: T1, alkaline phosphatase; assay: Solvent screen, visual colour change in PNPP; settings: 200 μL of the solvent into 2 mL of PNPP; 1-hour
Description: The results were not quantified with the spectrophotometer but the color change was visually observed. […] Two different dosing concentrations were evaluated, 10 μL of test chemical added to 90 μL of alkaline phosphatase reaction reagent and 50 μL of test chemical added to 50 μL of alkaline phosphatase reaction reagent; all aliquoted in 96-well plates.

[4] = skin, chemical lists of the protocols

SMILES	A1-Results R1 (alkaline phosphatase [1])	A1-Results R3 (alkaline phosphatase [1])	A1-Results AVG (alkaline phosphatase [1])	color change visually observed (alkaline phosphatase [3])	other results
CC(C)N(C)C [Dimethylisopropylamine]	3.423	3.485	3.458		in vivo GHS (skin; [4]): Cat. 1B/1C; OD405 readings (FIG. 11B) (alkaline phosphatase [1]): 3.354 and 3.466 and 3.502; prediction based on OD405 values (FIG. 6B) (alkaline phosphatase [1]): incorrectly predicted; OD405 readings (FIG. 6D) (alkaline phosphatase [1]): 3.466 and 3.502; OD405 readings (FIG. 11D) (alkaline phosphatase [2]): 2.926 and 2.922 and 2.852
CCCCCCCCC=O [Nonyl aldehyde]	3.393	3.050	3.296		in vivo GHS (skin; [4]): Cat. 2 (Category 2 (irritation; mean score of ≥2.3 and ≤4.0 for erythema/eschar or for oedema in at least 2 of 3 tested animals at 24, 48, and 72 hours or inflammation that persists to the end of 14 days)); OD405 reading (FIG. 7A) (alkaline phosphatase [2]): 1.589; OD405 reading (FIG. 7B) (alkaline phosphatase [2]): 3.078
CCCCCCCC(=O)O [Octanoic Acid]	0.741	0.860	0.797		in vivo GHS (skin; rabbit, in vivo): Cat. 1B/1C; OD405 readings (FIG. 11B) (alkaline phosphatase [1]): 1.427 and 1.415 and 1.416; prediction based on OD405 values (FIG. 6B) (alkaline phosphatase [1]): incorrectly predicted; OD405 readings (FIG. 6D) (alkaline phosphatase [1]): 3.462 and 3.491 and 3.333; OD405 readings (FIG. 11D) (alkaline phosphatase [2]): 3.283 and 3.408 and 3.220
CC(C)=O [acetone]				brightest yellow intensity	
C[S+](C)[O-] [dimethyl sulfoxide]				no response (clear)	
CCO [ethanol]				brightest yellow intensity	
CO [methanol]				lesser yellow intensity	

Source: US20250369032A1 (priority 2023, published 2025)
